Laboratory results reported in ChEMBL document CHEMBL3120136 (J Med Chem, 2014).
*1 amine or outer side, *2 acyl side, *3 side chain or, on linkers, in order; H or OH if unused. Where a SMILES comes first, the peptide text is derived from it. Side-chain parts run from the residue outwards. [ ]: non-standard residue; d: D form. The star is where a group is joined. Tetrahydroisoquinolin(2-yl) = c1ccc2c(c1)CCN(*)C2; Ac3c(1R,2S-2-vinyl) = C=C[C@@H]1C[C@]1(N)C(=O)O; NH(1-naphthylmethyl) = c1ccc2c(CN*)cccc2c1; NH(1-naphthyl) = c1ccc2c(N*)cccc2c1; Hyp = O=C(O)[C@@H]1C[C@@H](O)CN1; Chg = N[C@H](C(=O)O)C1CCCCC1; X2 = c1ccc(C2CN(*)CCO2)cc1; X3 = c1ccc(C2CCN(*)C2)cc1; Morpholide = C1CN(*)CCO1; Piperidide = C1CCN(*)CC1; Pyrrolidide = C1CCN(*)C1; X4 = c1ccc(C2COCCN2*)cc1; X5 = c1ccc2c(c1)CN(*)C2; X1 = c1ccc2c(c1)CCN2*; CO = O=C([*:1])[*:2]

Columns and labels:
Hepatitis C virus = experiment: Antiviral activity against Hepatitis C virus infected in human HuH7 cells assessed as inhibition of HCV subgenomic replicon replication after 72 hrs by ELISA; format: functional, organism-based, Hepacivirus hominis, Huh-7; conditions: Hepatitis C virus, Huh-7, 72 h; read-out: EC50
[1] = Inhibition of Hepatitis C virus full-length NS3/4A protease assessed as quenched-fluorogenic RET-S1 substrate cleavage incubated for 10 mins prior to substrate addition by FRET analysis; parameters: species or system Hepacivirus hominis

| EC50 (Hepatitis C virus) | IC50 [1] | SMILES |
| --- | --- | --- |
| > 10000 nM | 210 nM | C=C[C@@H]1C[C@]1(NC(=O)[C@@H]1C[C@@H](OC(=O)N2CCc3ccccc3C2)CN1C(=O)[C@@H](NC(=O)[C@@H](NC(C)=O)C1CCCCC1)C(C)C)C(=O)O (Ac-[Chg]V[Hyp]([CO-Tetrahydroisoquinolin(2-yl)])[Ac3c(1R,2S-2-vinyl)]-OH) |
| 5.1 nM | 0.7 nM | CC(C)(C)OC(=O)N[C@H]1CCCCC/C=C\[C@@H]2C[C@@]2(C(=O)NS(=O)(=O)C2CC2)NC(=O)[C@@H]2C[C@@H](OC(=O)N3Cc4c(F)ccc(F)c4C3)CN2C1=O |
| 3910 nM | 12 nM | CC(=O)O[C@@H]1C[C@H]2C(=O)N[C@]3(C(=O)NS(=O)(=O)C4CC4)C[C@H]3/C=C\CCCCC[C@H](NC(=O)OC(C)(C)C)C(=O)N2C1 |
| 13 nM | 0.8 nM | CC(C)(C)OC(=O)N[C@H]1CCCCC/C=C\[C@@H]2C[C@@]2(C(=O)NS(=O)(=O)C2CC2)NC(=O)[C@@H]2C[C@@H](OC(=O)N3CCc4cccc(C(F)(F)F)c4C3)CN2C1=O |
| 43 nM | 2.1 nM | CC(C)(C)OC(=O)N[C@H]1CCCCC/C=C\[C@@H]2C[C@@]2(C(=O)NS(=O)(=O)C2CC2)NC(=O)[C@@H]2C[C@@H](OC(=O)N3CCc4cccc(Cl)c4C3)CN2C1=O |
| 45 nM | 0.8 nM | CC(C)(C)OC(=O)N[C@H]1CCCCC/C=C\[C@@H]2C[C@@]2(C(=O)NS(=O)(=O)C2CC2)NC(=O)[C@@H]2C[C@@H](OC(=O)N3Cc4ccc(N5CCOCC5)cc4C3)CN2C1=O |
| 2130 nM | 75 nM | CC(C)(C)OC(=O)N[C@H]1CCCCC/C=C\[C@@H]2C[C@@]2(C(=O)NS(=O)(=O)C2CC2)NC(=O)[C@@H]2C[C@@H](O)CN2C1=O |
| – | 818 nM | C=C[C@@H]1C[C@]1(NC(=O)[C@@H]1C[C@@H](OC(=O)Nc2cccc3ccccc23)CN1C(=O)[C@@H](NC(=O)[C@@H](NC(C)=O)C1CCCCC1)C(C)C)C(=O)O (Ac-[Chg]V[Hyp]([CO-NH(1-naphthyl)])[Ac3c(1R,2S-2-vinyl)]-OH) |
| 41 nM | 2 nM | CN1CCN(c2ccc3c(c2)CN(C(=O)O[C@@H]2C[C@H]4C(=O)N[C@]5(C(=O)NS(=O)(=O)C6CC6)C[C@H]5/C=C\CCCCC[C@H](NC(=O)OC(C)(C)C)C(=O)N4C2)C3)CC1 |
| 35 nM | 2.6 nM | CC(C)(C)OC(=O)N[C@H]1CCCCC/C=C\[C@@H]2C[C@@]2(C(=O)NS(=O)(=O)C2CC2)NC(=O)[C@@H]2C[C@@H](OC(=O)N3CCc4cc(C(F)(F)F)ccc4C3)CN2C1=O |
| 4.1 nM | 0.2 nM | CC(C)(C)OC(=O)N[C@H]1CCCCC/C=C\[C@@H]2C[C@@]2(C(=O)NS(=O)(=O)C2CC2)NC(=O)[C@@H]2C[C@@H](OC(=O)N3Cc4cccc(N)c4C3)CN2C1=O |
| 111 nM | 4.6 nM | CC(C)(C)OC(=O)N[C@H]1CCCCC/C=C\[C@@H]2C[C@@]2(C(=O)NS(=O)(=O)c2ccc(Cl)s2)NC(=O)[C@@H]2C[C@@H](OC(=O)N3Cc4ccccc4C3)CN2C1=O |
| 70.2 nM | 1.8 nM | CC(C)(C)OC(=O)N[C@H]1COCCC/C=C\[C@@H]2C[C@@]2(C(=O)NS(=O)(=O)C2CC2)NC(=O)[C@@H]2C[C@@H](OC(=O)N3Cc4cccc(F)c4C3)CN2C1=O |
| 24 nM | 1.2 nM | CC(C)(C)OC(=O)N[C@H]1CCCCC/C=C\[C@@H]2C[C@@]2(C(=O)NS(=O)(=O)C2CC2)NC(=O)[C@@H]2C[C@@H](OC(=O)N3CCc4c(F)ccc(F)c4C3)CN2C1=O |
| 4 nM | 1 nM | O=C(N[C@H]1CCCCC/C=C\[C@@H]2C[C@@]2(C(=O)NS(=O)(=O)C2CC2)NC(=O)[C@@H]2C[C@@H](OC(=O)N3Cc4ccccc4C3)CN2C1=O)OC1CCCC1 |
| 365 nM | 8.2 nM | CC(C)(C)OC(=O)N[C@H]1CCCCC/C=C\[C@@H]2C[C@@]2(C(=O)NS(=O)(=O)C2CC2)NC(=O)[C@@H]2C[C@@H](NC(=S)N3CCc4ccccc4C3)CN2C1=O |
| 156 nM | 6.6 nM | CC(C)(C)OC(=O)N[C@H]1CCCCC/C=C\[C@@H]2C[C@@]2(C(=O)NS(C)(=O)=O)NC(=O)[C@@H]2C[C@@H](OC(=O)N3Cc4ccccc4C3)CN2C1=O |
| 614 nM | 6.4 nM | CC(C)(C)OC(=O)N[C@H]1CCCCC/C=C\[C@@H]2C[C@@]2(C(=O)NS(=O)(=O)C2CC2)NC(=O)[C@@H]2C[C@@H](NC(=O)c3nc4ccccc4[nH]3)CN2C1=O |
| – | 186 nM | C=C[C@@H]1C[C@]1(NC(=O)[C@@H]1C[C@@H](OC(=O)N2Cc3ccccc3C2)CN1C(=O)[C@@H](NC(=O)[C@@H](NC(C)=O)C1CCCCC1)C(C)C)C(=O)O (Ac-[Chg]V[Hyp]([CO-X5])[Ac3c(1R,2S-2-vinyl)]-OH) |
| 29 nM | 1.2 nM | CC(C)(C)OC(=O)N[C@H]1CCCCC/C=C\[C@@H]2C[C@@]2(C(=O)NS(=O)(=O)C2CC2)NC(=O)[C@@H]2C[C@@H](OC(=O)N3Cc4cccc(C(F)(F)F)c4C3)CN2C1=O |

| EC50 (Hepatitis C virus) | IC50 [1] | SMILES |
| --- | --- | --- |
| 194 nM | 37 nM | CC(C)(C)OC(=O)N[C@H]1CCCCC/C=C\[C@@H]2C[C@@]2(C(=O)NS(=O)(=O)C(C)(C)C)NC(=O)[C@@H]2C[C@@H](OC(=O)N3Cc4ccccc4C3)CN2C1=O |
| 155 nM | 0.8 nM | CC(C)(C)OC(=O)N[C@H]1CCCOC/C=C\[C@@H]2C[C@@]2(C(=O)NS(=O)(=O)C2CC2)NC(=O)[C@@H]2C[C@@H](OC(=O)N3Cc4cccc(F)c4C3)CN2C1=O |
| 3160 nM | 110 nM | CC(C)(C)OC(=O)N[C@H]1CCCCC/C=C\[C@@H]2C[C@@]2(C(=O)O)NC(=O)[C@@H]2C[C@@H](OC(=O)N3Cc4ccc(Cl)cc4C3)CN2C1=O |
| 1830 nM | 9.7 nM | CC(C)(C)OC(=O)N[C@H]1CCNCC/C=C\[C@@H]2C[C@@]2(C(=O)NS(=O)(=O)C2CC2)NC(=O)[C@@H]2C[C@@H](OC(=O)N3Cc4cccc(F)c4C3)CN2C1=O |
| 20 nM | 21 nM | CC(C)(C)OC(=O)N[C@H]1CCCCC/C=C\[C@@H]2C[C@@]2(C(=O)NS(=O)(=O)C2CC2)NC(=O)[C@@H]2C[C@@H](OC(=O)N3Cc4ccc(C(F)(F)F)cc4C3)CN2C1=O |
| 97 nM | 2.2 nM | O=C(N[C@H]1CCCCC/C=C\[C@@H]2C[C@@]2(C(=O)NS(=O)(=O)C2CC2)NC(=O)[C@@H]2C[C@@H](OC(=O)N3Cc4ccccc4C3)CN2C1=O)OC1CCOCC1 |
| 13 nM | 3.5 nM | CC(C)(C)OC(=O)N[C@H]1CCCCC/C=C\[C@@H]2C[C@@]2(C(=O)NS(=O)(=O)C2CC2)NC(=O)[C@@H]2C[C@@H](NC(=O)c3nc4ccccc4s3)CN2C1=O |
| 46 nM | 17 nM | CN1CCN(S(=O)(=O)NC(=O)[C@@]23C[C@H]2/C=C\CCCCC[C@H](NC(=O)OC(C)(C)C)C(=O)N2C[C@H](OC(=O)N4Cc5ccccc5C4)C[C@H]2C(=O)N3)CC1 |
| 5 nM | 3 nM | CCCC1(S(=O)(=O)NC(=O)[C@@]23C[C@H]2/C=C\CCCCC[C@H](NC(=O)OC(C)(C)C)C(=O)N2C[C@H](OC(=O)N4Cc5ccccc5C4)C[C@H]2C(=O)N3)CC1 |
| 11 nM | 2 nM | CC(C)(C)OC(=O)N[C@H]1CCCCC/C=C\[C@@H]2C[C@@]2(C(=O)NS(=O)(=O)C2CC2)NC(=O)[C@@H]2C[C@@H](OC(=O)N3CCc4cc(F)ccc4C3)CN2C1=O |
| 54 nM | 1.5 nM | O=C(N[C@H]1CCCCC/C=C\[C@@H]2C[C@@]2(C(=O)NS(=O)(=O)C2CC2)NC(=O)[C@@H]2C[C@@H](OC(=O)N3Cc4ccccc4C3)CN2C1=O)OCCF |
| 2.2 nM | 3 nM | CC(C)(C)OC(=O)N[C@H]1CCCCC/C=C\[C@@H]2C[C@@]2(C(=O)NS(=O)(=O)C2CC2)NC(=O)[C@@H]2C[C@@H](OC(=O)N3Cc4cccc(Cl)c4C3)CN2C1=O |
| – | 14900 nM | C=C[C@@H]1C[C@]1(NC(=O)[C@@H]1C[C@@H](OC(=O)N2CCCC2)CN1C(=O)[C@@H](NC(=O)[C@@H](NC(C)=O)C1CCCCC1)C(C)C)C(=O)O (Ac-[Chg]V[Hyp]([CO-Pyrrolidide])[Ac3c(1R,2S-2-vinyl)]-OH) |
| – | 5500 nM | C=C[C@@H]1C[C@]1(NC(=O)[C@@H]1C[C@@H](OC(=O)N2CCOCC2c2ccccc2)CN1C(=O)[C@@H](NC(=O)[C@@H](NC(C)=O)C1CCCCC1)C(C)C)C(=O)O (stereo partly drawn) (Ac-[Chg]V[Hyp]([CO-X4])[Ac3c(1R,2S-2-vinyl)]-OH) |
| – | 4290 nM | C=C[C@@H]1C[C@]1(NC(=O)[C@@H]1C[C@@H](OC(=O)N2CCCCC2)CN1C(=O)[C@@H](NC(=O)[C@@H](NC(C)=O)C1CCCCC1)C(C)C)C(=O)O (Ac-[Chg]V[Hyp]([CO-Piperidide])[Ac3c(1R,2S-2-vinyl)]-OH) |
| – | 47100 nM | C=C[C@@H]1C[C@]1(NC(=O)[C@@H]1C[C@@H](OC(=O)N2CCOCC2)CN1C(=O)[C@@H](NC(=O)[C@@H](NC(C)=O)C1CCCCC1)C(C)C)C(=O)O (Ac-[Chg]V[Hyp]([CO-Morpholide])[Ac3c(1R,2S-2-vinyl)]-OH) |
| – | 735 nM | C=C[C@@H]1C[C@]1(NC(=O)[C@@H]1C[C@@H](OC(=O)N2CCC(c3ccccc3)C2)CN1C(=O)[C@@H](NC(=O)[C@@H](NC(C)=O)C1CCCCC1)C(C)C)C(=O)O (stereo partly drawn) (Ac-[Chg]V[Hyp]([CO-X3])[Ac3c(1R,2S-2-vinyl)]-OH) |
| – | 4770 nM | C=C[C@@H]1C[C@]1(NC(=O)[C@@H]1C[C@@H](OC(=O)N2CCOC(c3ccccc3)C2)CN1C(=O)[C@@H](NC(=O)[C@@H](NC(C)=O)C1CCCCC1)C(C)C)C(=O)O (stereo partly drawn) (Ac-[Chg]V[Hyp]([CO-X2])[Ac3c(1R,2S-2-vinyl)]-OH) |
| – | 200 nM | C=C[C@@H]1C[C@]1(NC(=O)[C@@H]1C[C@@H](OC(=O)N2CCc3ccccc32)CN1C(=O)[C@@H](NC(=O)[C@@H](NC(C)=O)C1CCCCC1)C(C)C)C(=O)O (Ac-[Chg]V[Hyp]([CO-X1])[Ac3c(1R,2S-2-vinyl)]-OH) |
| – | 835 nM | C=C[C@@H]1C[C@]1(NC(=O)[C@@H]1C[C@@H](OC(=O)NCc2cccc3ccccc23)CN1C(=O)[C@@H](NC(=O)[C@@H](NC(C)=O)C1CCCCC1)C(C)C)C(=O)O (Ac-[Chg]V[Hyp]([CO-NH(1-naphthylmethyl)])[Ac3c(1R,2S-2-vinyl)]-OH) |
